Key:
[1] = tested on: glucagon-induced blood glucose increase; test: Suppressive action test for glucagon-induced blood glucose increase (rat); assay type: in vivo; settings: SD rats male, 10 mg/kg oral, glucagon 15 μg/kg s.c. 60 min later, blood glucose 20 min after glucagon
Description: Suppressive Action Test for Glucagon-Induced Blood Glucose Increase (Rat)
Full feeding SD rats (male, 7- to 9-week-old) were fasted, 0.5% methylcellulose suspension containing a test compound (10 mg/kg body weight) (compound administration group, 5 rats per group) or 0.5% methylcellulose suspension (compound non-administration group, 12 rats, per group) was orally administered, and 60 min later, glucagon (15 μg/kg body weight, Novo Nordisk Pharma Ltd.) was subcutaneously administered. At 20 min from the glucagon administration, blood samples were collected from the rat tail vein and the blood glucose was measured using a self-testing glucose kit ACCU-CHEK (Roche Diagnostics K.K.). In addition, as a non-treatment group (5 rats per group), the blood glucose of rat (compound non-treatment group) free of glucagon administration was measured in the same manner as above.
The difference between the blood glucose of compound non-administration group or compound administration group and the blood glucose of non-treatment group was calculated. The percentage of “the difference between blood glucose of compound administration group and blood glucose of non-treatment group” was obtained as “blood glucose increase rate (% of control)” where “the difference between blood glucose of compound non-administration group and that of non-treatment group” is 100%.

human glucagon receptor = biological target: T1, human glucagon receptor (Homo sapiens, UniProt P47871); test: Glucagon binding inhibitory activity ([125I]-glucagon binding to glucagon receptor membrane protein); settings: for IC50: human glucagon receptor membrane protein, [125I]-glucagon, 90 min room temperature; for inhibition at 10 µM / inhibitory rate (%) at 10 μM: test compound 10 μM, 0.4% DMSO = 0%, non-labeled glucagon 1 μM = 100%; for inhibition at 10 µM: read-out: inhibitory rate (%) at 10 μM
T1 construct: made in house; host or cells: FreeStyle CHO cells, transient transfection with pMSRαneo/hGCGR; membrane fraction (35,000 rpm pellet)
T1 sequence (P47871 26-477): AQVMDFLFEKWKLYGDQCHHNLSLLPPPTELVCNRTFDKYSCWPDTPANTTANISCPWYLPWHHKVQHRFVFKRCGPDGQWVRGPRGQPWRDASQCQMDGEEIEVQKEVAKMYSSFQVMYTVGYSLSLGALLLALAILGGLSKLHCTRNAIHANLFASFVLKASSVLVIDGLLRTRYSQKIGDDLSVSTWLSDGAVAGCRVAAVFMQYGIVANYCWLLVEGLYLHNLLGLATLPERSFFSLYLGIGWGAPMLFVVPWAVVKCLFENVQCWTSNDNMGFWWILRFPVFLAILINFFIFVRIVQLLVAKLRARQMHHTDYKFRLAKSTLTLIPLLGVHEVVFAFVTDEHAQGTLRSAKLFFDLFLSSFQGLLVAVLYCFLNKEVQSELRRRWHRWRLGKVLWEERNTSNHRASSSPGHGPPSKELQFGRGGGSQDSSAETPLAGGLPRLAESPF
In short: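 Receptor source was a membrane fraction of transiently transfected CHO cells bearing human receptor; 90 min room-temperature binding, filtration harvest, scintillation counting.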

Cc1c(C(Nc2ccc(C(=O)N(C)CCC(=O)O)cc2)C2CCCCC2)oc2ccc(OC3CCOCC3)cc12 (single isomer, unassigned) [Example A83, 3-[{[4-({cyclohexyl[3-methyl-5-(tetrahydro-2H-pyran-4-yloxy)-1-benzofuran-2-yl]methyl}amino)phenyl]carbonyl}(methyl)amino]propanoic acid]
blood glucose increasing rate (% of control) [1]: 43.0 % of control | IC50 (human glucagon receptor): 84 nM | inhibition at 10 µM (human glucagon receptor): 93%

Cc1c(C(Nc2ccc(C(=O)N(C)CCC(=O)O)cn2)C2CCCCC2)oc2ccc(F)cc12 (single isomer, unassigned) [Example A53, 3-{[(6-{[cyclohexyl(5-fluoro-3-methyl-1-benzofuran-2-yl)methyl]amino}pyridin-3-yl)carbonyl](methyl)amino}propanoic acid]
blood glucose increasing rate (% of control) [1]: 27.4 % of control | IC50 (human glucagon receptor): 570 nM | inhibition at 10 µM (human glucagon receptor): 83%

CCC(CC)C(Nc1ccc(C(=O)N(C)CCC(=O)O)cc1)c1oc2ccc(F)cc2c1C (single isomer, unassigned) [Example A73, 3-{[(4-{[2-ethyl-1-(5-fluoro-3-methyl-1-benzofuran-2-yl)butyl]amino}phenyl)carbonyl](methyl)amino}propanoic acid]
blood glucose increasing rate (% of control) [1]: 24.2 % of control | IC50 (human glucagon receptor): 900 nM | inhibition at 10 µM (human glucagon receptor): 87%

Cc1c(C(Nc2ccc(C(=O)N(C)CCC(=O)O)cc2)C2CCCCC2)oc2ccc(F)cc12 (centres unmarked) [Example A46, 3-{[(4-{[cyclohexyl(5-fluoro-3-methyl-1-benzofuran-2-yl)methyl]amino}phenyl)carbonyl](methyl)amino}propanoic acid]
inhibitory rate (%) at 10 μM (human glucagon receptor): 78%

Cc1c(C(Nc2ccc(C(=O)N(C)CCC(=O)O)cc2)C(C)C)oc2ccc(OCc3ccccc3)cc12 (centres unmarked) [Example A86, 3-[{[4-({1-[5-(benzyloxy)-3-methyl-1-benzofuran-2-yl]-2-methylpropyl}amino)phenyl]carbonyl}(methyl)amino]propanoic acid]
inhibitory rate (%) at 10 μM (human glucagon receptor): 89%

COc1ccc(-n2cc(C(Nc3ccc(C(=O)NCCC(=O)O)cc3)C3CCCCC3)c(C)n2)cc1 (centres unmarked) [Example 23, 3-({[4-({cyclohexyl[1-(4-methoxyphenyl)-3-methyl-1H-pyrazol-4-yl]methyl}amino)phenyl]carbonyl}amino)propanoic acid]
inhibition at 10 µM (human glucagon receptor): 71%

Cc1c(C(Nc2ccc(C(=O)N(C)CCC(=O)O)cc2)C2CCCCC2)oc2ccccc12 (centres unmarked) [Example A41]
blood glucose increasing rate (% of control) [1]: 16.6 % of control | inhibitory rate (%) at 10 μM (human glucagon receptor): 86%

COc1ccc2oc(C(Nc3ccc(C(=O)NCCC(=O)O)cc3)C3CCCCC3)c(C#N)c2c1 (centres unmarked) [Example A108, 3-{[(4-{[(3-cyano-5-methoxy-1-benzofuran-2-yl)(cyclohexyl)methyl]amino}phenyl)carbonyl]amino}propanoic acid]
inhibition at 10 µM (human glucagon receptor): 58%

Cc1c(C(Nc2ccc(C(=O)N(C)CCC(=O)O)cc2)C2CCCCC2)oc2ccc(OCC(C)(C)O)cc12 (centres unmarked) [Example A195, 3-[{[4-({cyclohexyl[5-(2-hydroxy-2-methylpropoxy)-3-methyl-1-benzofuran-2-yl]methyl}amino)phenyl]carbonyl}(methyl)amino]propanoic acid]
inhibition at 10 µM (human glucagon receptor): 84%

Cc1c(C(Nc2ccc(C(=O)N(C)CCC(=O)O)cc2)C(C)C)oc2ccc(C3CC3)cc12 (centres unmarked) [Example A184, 3-{[(4-{[1-(5-cyclopropyl-3-methyl-1-benzofuran-2-yl)-2-methylpropyl]amino}phenyl)carbonyl](methyl)amino}propanoic acid]
inhibition at 10 µM (human glucagon receptor): 74%

COCc1nn(-c2ccccc2)cc1C(Nc1ccc(C(=O)NCCC(=O)O)cc1)C1CCCCC1 (centres unmarked) [Example 37, 3-({[4-({cyclohexyl[3-(methoxymethyl)-1-phenyl-1H-pyrazol-4-yl]methyl}amino)phenyl]carbonyl}amino)propanoic acid]
inhibition at 10 µM (human glucagon receptor): 70%

COc1ccc2oc(C(Nc3ccc(C(=O)NCCC(=O)O)cc3)C3CCCCC3)c(Br)c2c1 (centres unmarked) [Example A102, 3-{[(4-{[(3-bromo-5-methoxy-1-benzofuran-2-yl)(cyclohexyl)methyl]amino}phenyl)carbonyl]amino}propanoic acid]
inhibition at 10 µM (human glucagon receptor): 68%

Cc1c(C(Nc2ccc(C(=O)N(C)CCC(=O)O)cc2)C2CCCCC2)oc2ccc(NS(=O)(=O)c3ccccc3)cc12 (centres unmarked) [Example A130, 3-[({4-[(cyclohexyl{3-methyl-5-[(phenylsulfonyl)amino]-1-benzofuran-2-yl}methyl)amino]phenyl}carbonyl)(methyl)amino]propanoic acid]
inhibition at 10 µM (human glucagon receptor): 76%

COCCOCc1c(C(Nc2ccc(C(=O)NCCC(=O)O)cc2)C2CCCCC2)oc2ccc(F)cc12 (centres unmarked) [Example A132, 3-[({4-[(cyclohexyl{5-fluoro-3-[(2-methoxyethoxy)methyl]-1-benzofuran-2-yl}methyl)amino]phenyl}carbonyl)amino]propanoic acid]
inhibition at 10 µM (human glucagon receptor): 83%

Cc1c(C(Nc2ccc(C(=O)N(C)CCC(=O)O)cc2)C2CCCCC2)oc2ccc(OCc3ccccc3)cc12 (centres unmarked) [Example A154, 3-[{[4-({[5-(benzyloxy)-3-methyl-1-benzofuran-2-yl](cyclohexyl)methyl}amino)phenyl]carbonyl}(methyl)amino]-propanoic acid]
inhibition at 10 µM (human glucagon receptor): 82%

Cc1nn(-c2ccc(C(F)(F)F)cn2)cc1C(Nc1ccc(C(=O)N(C)CCC(=O)O)cc1)C1CCCCC1 (centres unmarked) [Example 2, 3-[({4-[(cyclohexyl{3-methyl-1-[5-(trifluoromethyl)pyridin-2-yl]-1H-pyrazol-4-yl}methyl)amino]phenyl}carbonyl)(methyl)amino]propanoic acid]
inhibition at 10 µM (human glucagon receptor): 72%

— patent US8436043B2 (Takeda Pharmaceutical Company Limited, priority 2008, dated 2013)
